Values quoted from earlier work in patent US9775900B2, “Photodynamic diagnosis, formulations usable as photosensitizers for this purpose, method for the production and use thereof” (Sanochemia Pharmazeutika AG, priority 2015, dated 2017).

Details: pure hypericin

## Cc1cc(O)c2c(=O)c3c(O)cc(O)c4c5c(O)cc(O)c6c(=O)c7c(O)cc(C)c8c1c2c(c34)c(c78)c65 [hypericin, 1,3,4,6,8,13-hexahydroxy-10,11-dimethylphenanthro (1,10,9,8-opqra) perylene-7,14-dione]
  solubility in water: water-insoluble
